Values quoted from earlier work in US6972278B2, “Laundry detergent gel with suspended particles” (Unilever Home & Personal Care USA division of Conopco, Inc., priority 2004, dated 2005).

Conditions: by fatty acid chain length; cited from Langmuir, Vol 16, pp 172-177, 2000

SMILES	Measured pKa value
CCCCCCCC(=O)O [Example 8]	6.3~6.5
CCCCCCCCCC(=O)O [Example 10]	7.1~7.3
CCCCCCCCCCCC(=O)O [Example 12]	~7.5
CCCCCCCCCCCCCC(=O)O [Example 14]	8.1~8.2
CCCCCCCCCCCCCCCC(=O)O [Example 16]	8.6~8.8

Same assay, conditions: by fatty acid chain length; cited from Proc. R. Soc. London, A133, 140, 1931

SMILES	Measured pKa value
CCCCCCCCCCCCCCCC(=O)O [Example 16]	8.5
